Experiment: Co-crystal screening experiments with Formula II (Table 17)
Type: physicochemical
Conditions: XRPD
Procedure: Additional co-crystal screens were carried out to identify further solid state forms of Formula (II).
Differential scanning calorimetry (DSC) was carried out with a TA Instruments Q2000 instrument (closed aluminum sample pan aluminum sample pan with a pinhole in the lid, heating rate 20 K/min). The melting point is understood as the peak maximum.
Light microscopy was performed on a Leitz Orthoplan polarized microscope part #130880, generally a 10×10 magnification was applied.
X-ray powder diffraction (XRPD) was carried out with a Stoe Stadi P diffractometer equipped with a Mythen1K detector operating with Cu-Kα1 radiation. The measurements with this instrument were performed in transmission at a tube voltage of 40 kV and 40 mA tube power. A curved Ge monochromator allows testing with Cu-Kα1 radiation. The following parameters were set: 0.02° 2θ step size, 12 s step time, 1.5-50.5° 2θ scanning range, and 1° 2θ detector step (detector mode in step scan). For a typical sample preparation about 10 mg of sample was placed between two acetate foils and mounted into a Stoe transmission sample holder. The sample was rotated during the measurement. All sample preparation and measurement was done in an ambient air atmosphere.
TG-FTIR measurements were carried out with a Netzsch Thermo-Microblanace TG209 coupled to a Bruker FTIR Spectrometer Vector 22 (sample pans with a pinhole, N2 atmosphere, heating rate 10° C./min to 300 or 350° C.).
The starting material was a freebase form of Formula (II).

Which “Result (co-crystal screening)” value (Experiment 1: material as received) does the source give for `COc1ncnc(C2CC2)c1-c1ncc2cnn(Cc3ccc(-c4nc(C(F)(F)F)cn4C(C)C)cc3)c2n1` [Compound of Formula (II), 6-(4-cyclopropyl-6-methoxypyrimidin-5-yl)-1-(4-(1-isopropyl-4-(trifluoromethyl)-1H-imidazol-2-yl)benzyl)-1H-pyrazolo[3,4-d]pyrimidine] here?
The value was “Free base”.

And the “Result (co-crystal screening)” value (Experiment 6: benzoic acid (1:1.1 eq), EtOAc 0.5 mL/heptane 3 mL, agitated 1 day)?
The value was “Free base”.

And the “Result (co-crystal screening)” value (Experiment 16: gallic acid in acetone, evaporation, glassy residue treated with water/isopropanol)?
Its value is “Free base”.

What about the “Result (co-crystal screening)” value (Experiment 17: 300 mg, 430 mg gallic acid, EtOH, evaporated three days) of the same compound?
Its value is “Gallic acid”.
